Assay results: patent US4868162A, “Antiviral agent” (Teijin Limited, priority 1985, dated 1989)
≈ marks a conversion by molar mass, not a printed value.

Assays:
[1] = test system: herpes simplex type I virus (KOS strain); test: Plaque reduction in herpes simplex type I infected Vero cells (Example 3, 2,000 pfu/ml); format: cell-based; conditions: for Therapeutic index MTD/ED50: HSV-1 KOS 2,000 pfu/ml, 2880 min; for EC50: Human alphaherpesvirus 1, HSV-1 KOS 2,000 pfu/ml, 48-hour culture, read-out: ED50 (effective dose which suppressed the formation of plaques by 50% in number)
Description: (§1) Vero cells. were cultured in Eagle essential medium (MEM) containing 5% fetal calf serum (FCS) and were made to proliferate after the monolayer cell culture method. The cells were inoculated with 0.1 ml of herpes simplex type I virus (KOS strain) of 2,000 pfu/ml concentration, which were made to be adsorbed by the host cells at 37° C. for 1 hour. The virus that were not yet adsorbed were washed away with a 2% CS-MEM medium and then test compounds, inclusive of the compounds of this invention, were added to the cultures respectively in concentration of 0.01~1,000 μg/ml.
(§2) After 48-hour culture in 2% CS-MEM medium was over, the effective dose of each test compound which suppressed the formation of plaques by 50% in number (ED50) and the minimum toxic dose (MTD) which caused the cytotoxicity were measured.

in vitro [2] = format: cell-based, African green monkey; conditions: monkey, vero cells
Description: as §1, §2

in vitro [3] = format: cell-based, African green monkey; conditions: monkey, vero cells; remark: listed apart in the source
Description: as §2, with “Vero cells were cultured in Eagle minimum 1 medium (MEM) containing 5% calf serum (CS) and were made to proliferate after the monolayer cell culture method. […] After” for “After”, “(EDs)” for “(ED50)”

[4] = test system: herpes simplex type I virus (KOS strain); test: Plaque reduction in herpes simplex type I infected Vero cells (Example 2, 10,000 pfu/ml); format: cell-based; conditions: HSV-1 KOS 10,000 pfu/ml; for EC50: Human alphaherpesvirus 1, 48-hour culture, read-out: ED50 (effective dose which suppressed the formation of plaques by 50% in number); for EC50 / Therapeutic index MTD/ED50: Vero cells; for Therapeutic index MTD/ED50: 2880 min
Description: Vero cells were cultured in Eagle minimum
1 medium (MEM) containing 5% calf serum (CS) and were made to proliferate after the monolayer cell culture method. The cultured cells were inoculated with 0.1 ml of herpes simplex type I virus (KOS strain) of 10,000 pfu/ml concentration, which were left to be adsorbed by the host cells at 37° C. for 1 hour. The test compounds, inclusive of the compounds of this invention, were added to the cultures respectively in concentration of 0.001~1,000 μg/ml.
After 48-hour culture in 2% CS-MEM medium was over, the effective dose of each test compound which suppressed the formation of plaques by 50% in number (EDs) and the minimum toxic dose (MTD) which caused the cytotoxicity were measured.

[5] = test system: herpes simplex type I virus (KOS strain); test: Plaque reduction in herpes simplex type I infected Vero cells (Example 1, 1,000 pfu/ml); format: cell-based; conditions: for Therapeutic index MTD/ED50: HSV-1 KOS 1,000 pfu/ml, 2880 min; for EC50: Human alphaherpesvirus 1, HSV-1 KOS 1,000 pfu/ml, 48-hour culture, read-out: ED50 (effective dose which suppressed the formation of plaques by 50% in number)
Description: (§3) Vero cells were cultured in Eagle minimum essential medium (MEM) containing 5% calf serum (CS) and were made to proliferate by means of monolayer cell culture. The cells were inoculated with 0.1 ml of herpes simplex type I virus (KOS strain) adjusted to 1,000 pfu/ml, which were allowed to hold on the host cells by adsorption for 1 hour at 37° C. Thereafter, the test compound, inclusive of the compounds of this invention, were added thereto respectively in concentration of 0.01~1,000 μg/ml.
(§4) After 48-hour culture in CS-MEM medium was over, the effective dose of each test compound which suppressed the formation of plaques by 50% in number (ED50) and the minimum toxic dose (MTD) which caused the cytotoxicity were measured.

[6] = Cytotoxicity, minimum toxic dose in Vero cells (Example 1); format: cell-based, African green monkey; conditions: monkey
Description: as §3, §4

SMILES	EC50 [1] [µg/mL]	MCC at 48 h (in vitro [2]) [µg/mL]	MCC at 48 h (in vitro [3]) [µg/mL]	EC50 [4] [µg/mL]	EC50 [5] [µg/mL]	Therapeutic index MTD/ED50 [1]	Therapeutic index MTD/ED50 [4]	Therapeutic index MTD/ED50 [5]	MCC at 48 h ([6]; vero cells) [µg/mL]	further results
CCCCCCCCCC(=O)OC[C@H]1O[C@@H](n2cc(F)c(=O)[nH]c2=O)C[C@@H]1OC(=O)CCCCCCCCC [3',5'-didecanoyl-5-fluoro-2'deoxyuridine, 3',5'-didecanoyl-5-fluoro-2'-deoxyuridine]			100	0.038 (≈ 0.0685 µM)			2,600			
CCCCCCCCCCCC(=O)OC[C@H]1O[C@@H](n2cc(F)c(=O)[nH]c2=O)C[C@@H]1OC(=O)CCCCCCCCCCC [3',5'-didodecanoyl-5-fluoro-2'-deoxyuridine]					0.054 (≈ 0.0884 µM)			1,900	100	
CCCCCCCCCCCCCC(=O)OC[C@H]1O[C@@H](n2cc(F)c(=O)[nH]c2=O)C[C@@H]1OC(=O)CCCCCCCCCCCCC [3',5'-ditetradecanoyl-5-fluoro-2'-deoxyuridine]					0.049 (≈ 0.0735 µM)			2,000	100	
O=c1[nH]c(=O)n([C@H]2C[C@H](O)[C@@H](CO)O2)cc1F [5-fluoro-2'-deoxyuridine, reference compound]					0.01 (≈ 0.0406 µM)			10		MCC at 48 h ([6]; Vero cells, Example 1, 48-hour culture, read-out: MTD (minimum toxic dose which caused the cytotoxicity)): 0.1 µg/mL

Now from value to molecule, other results behind:

EC50 [1] [µg/mL]	MCC at 48 h (in vitro [2]) [µg/mL]	MCC at 48 h (in vitro [3]) [µg/mL]	EC50 [4] [µg/mL]	EC50 [5] [µg/mL]	SMILES	Therapeutic index MTD/ED50 [1]	Therapeutic index MTD/ED50 [4]	Therapeutic index MTD/ED50 [5]	MCC at 48 h ([6]; vero cells) [µg/mL]	further results
0.112 (≈ 0.246 µM)	100				O=C(OC[C@H]1O[C@@H](n2cc(F)c(=O)[nH]c2=O)C[C@@H]1OC(=O)c1ccccc1)c1ccccc1 [3',5'-dibenzoyl-5-fluoro-2'-deoxyuridine]	893				
				0.077 (≈ 0.106 µM)	CCCCCCCCCCCCCCCC(=O)OC[C@H]1O[C@@H](n2cc(F)c(=O)[nH]c2=O)C[C@@H]1OC(=O)CCCCCCCCCCCCCCC [3',5'-dihexadecanoyl-5-fluoro-2'-deoxyuridine]			2,000	150	
		100	0.018 (≈ 0.0361 µM)		CCCCCCCC(=O)OC[C@H]1O[C@@H](n2cc(F)c(=O)[nH]c2=O)C[C@@H]1OC(=O)CCCCCCC [3',5'-dioctanoyl-5-fluoro-2'-deoxyuridine]		5,600			effective dose relative to that of Acyclovir for the same effect ([4]; fraction of Acyclovir effective dose): about 1/400
0.285 (≈ 0.47 µM)	10				CCCCCCCC(=O)OC[C@H]1O[C@@H](n2cc(I)c(=O)[nH]c2=O)C[C@@H]1OC(=O)CCCCCCC [3',5'-dioctanoyl-5-iodo-2'-deoxyuridine]	35				
3.36 (≈ 14.9 µM)	1000	1000	7.26 (≈ 32.2 µM)	0.991 (≈ 4.4 µM)	Nc1nc2c(ncn2COCCO)c(=O)[nH]1 [9-(2-hydroxyethoxymethyl)guanine, reference compound]	279	140	1,000	1000	
